# In patent US20120130104A1, “CYCLOPROPENES-[…] TO CONTROL RIPENING PROCESSES OF AGRICULTURAL PRODUCTS” (priority 2005, published 2012):
# System: tomatoes
# Assay: Inhibitory effects of cyclopropene compounds on tomato ripening
# Format: in vivo
# Conditions: for Degree of ripening 0, number of tomatoes, Treated / Degree of ripening 1, number of tomatoes, Treated / Degree of ripening 2, number of tomatoes, Treated / Degree of ripening 3, number of tomatoes, Treated / Degree of ripening 4, number of tomatoes, Treated / Degree of ripening 5, number of tomatoes, Treated: scale 0 = no red color, 5 = completely ripened to dark red
# Protocol: A cube (60×60×60 cm) was fabricated using a transparent acrylic plastic plate. The upper surface of the cube was equipped with two valves for air-injection and exhaust. Immediately prior to beginning of the red ripening stages, 20 blue tomatoes were harvested and divided into a treatment group and a control group which were then placed in acrylic plastic vessels, respectively. Among two plastic vessels, the treatment group was treated with 1-methylcyclopropene generated by injection of 3 mL diglyme solution containing 0.2 g of 1-methyl-1-(methanesulfonyloxy)-2-(trimethylsilyl)cyclopropane {synthesized in Section (2) of Example 5} into a column packed with 5 g of 15% Bu4NF coated Silica gel {prepared in Section (2) of Example 4} while maintaining the air flow at a flow rate of 2 L/min using a small compressor (see FIG. 3).
# Tomatoes of the treatment group were treated for 1 hour according to the above-mentioned method and were then left for 12 hours while closing the valve. And then, tomatoes of the treatment group and tomatoes of the control group were observed on a progress of turning into red color. Based on the observation results, the ripening progress of tomatoes was evaluated.
# Herein, the degree of ripening of tomatoes was classified on a scale of 0 to 5:
# 0: No red color similar to when completely green tomatoes were harvested 5: Completely ripened to dark red 1 to 4: Red color between the scale of 0 and 5
# Therefore, the higher value represents the redder tomato color.
smiles,measurement,setting,value
CC1=CC1 [1-methylcyclopropene],inhibitory effects on the ripening process of tomatoes,1-methylcyclopropene generated by the device,significant inhibitory effects
same,"Degree of ripening 0, number of tomatoes, Treated",Day 0,10
same,"Degree of ripening 1, number of tomatoes, Treated",Day 0,0
same,"Degree of ripening 2, number of tomatoes, Treated",Day 0,0
same,"Degree of ripening 3, number of tomatoes, Treated",Day 0,0
same,"Degree of ripening 4, number of tomatoes, Treated",Day 0,0
same,"Degree of ripening 5, number of tomatoes, Treated",Day 0,0
same,"Degree of ripening 0, number of tomatoes, Treated",Day 1,10
same,"Degree of ripening 1, number of tomatoes, Treated",Day 1,0
same,"Degree of ripening 2, number of tomatoes, Treated",Day 1,0
same,"Degree of ripening 3, number of tomatoes, Treated",Day 1,0
same,"Degree of ripening 4, number of tomatoes, Treated",Day 1,0
same,"Degree of ripening 5, number of tomatoes, Treated",Day 1,0
same,"Degree of ripening 0, number of tomatoes, Treated",Day 2,10
same,"Degree of ripening 1, number of tomatoes, Treated",Day 2,0
same,"Degree of ripening 2, number of tomatoes, Treated",Day 2,0
same,"Degree of ripening 3, number of tomatoes, Treated",Day 2,0
same,"Degree of ripening 4, number of tomatoes, Treated",Day 2,0
same,"Degree of ripening 5, number of tomatoes, Treated",Day 2,0
same,"Degree of ripening 0, number of tomatoes, Treated",Day 3,9
same,"Degree of ripening 1, number of tomatoes, Treated",Day 3,1
same,"Degree of ripening 2, number of tomatoes, Treated",Day 3,0
same,"Degree of ripening 3, number of tomatoes, Treated",Day 3,0
same,"Degree of ripening 4, number of tomatoes, Treated",Day 3,0
same,"Degree of ripening 5, number of tomatoes, Treated",Day 3,0
same,"Degree of ripening 0, number of tomatoes, Treated",Day 4,8
same,"Degree of ripening 1, number of tomatoes, Treated",Day 4,1
same,"Degree of ripening 2, number of tomatoes, Treated",Day 4,1
same,"Degree of ripening 3, number of tomatoes, Treated",Day 4,0
same,"Degree of ripening 4, number of tomatoes, Treated",Day 4,0
same,"Degree of ripening 5, number of tomatoes, Treated",Day 4,0
same,"Degree of ripening 0, number of tomatoes, Treated",Day 5,8
same,"Degree of ripening 1, number of tomatoes, Treated",Day 5,1
same,"Degree of ripening 2, number of tomatoes, Treated",Day 5,0
same,"Degree of ripening 3, number of tomatoes, Treated",Day 5,1
same,"Degree of ripening 4, number of tomatoes, Treated",Day 5,0
same,"Degree of ripening 5, number of tomatoes, Treated",Day 5,0
same,"Degree of ripening 0, number of tomatoes, Treated",Day 6,6
same,"Degree of ripening 1, number of tomatoes, Treated",Day 6,2
same,"Degree of ripening 2, number of tomatoes, Treated",Day 6,1
same,"Degree of ripening 3, number of tomatoes, Treated",Day 6,0
same,"Degree of ripening 4, number of tomatoes, Treated",Day 6,1
same,"Degree of ripening 5, number of tomatoes, Treated",Day 6,0
same,"Degree of ripening 0, number of tomatoes, Treated",Day 7,6
same,"Degree of ripening 1, number of tomatoes, Treated",Day 7,2
same,"Degree of ripening 2, number of tomatoes, Treated",Day 7,1
same,"Degree of ripening 3, number of tomatoes, Treated",Day 7,0
same,"Degree of ripening 4, number of tomatoes, Treated",Day 7,0
same,"Degree of ripening 5, number of tomatoes, Treated",Day 7,1
same,"Degree of ripening 0, number of tomatoes, Treated",Day 8,5
same,"Degree of ripening 1, number of tomatoes, Treated",Day 8,2
same,"Degree of ripening 2, number of tomatoes, Treated",Day 8,1
same,"Degree of ripening 3, number of tomatoes, Treated",Day 8,1
same,"Degree of ripening 4, number of tomatoes, Treated",Day 8,0
same,"Degree of ripening 5, number of tomatoes, Treated",Day 8,1
same,"Degree of ripening 0, number of tomatoes, Treated",Day 9,2
same,"Degree of ripening 1, number of tomatoes, Treated",Day 9,3
same,"Degree of ripening 2, number of tomatoes, Treated",Day 9,2
same,"Degree of ripening 3, number of tomatoes, Treated",Day 9,1
same,"Degree of ripening 4, number of tomatoes, Treated",Day 9,1
same,"Degree of ripening 5, number of tomatoes, Treated",Day 9,1
same,"Degree of ripening 0, number of tomatoes, Treated",Day 10,1
same,"Degree of ripening 1, number of tomatoes, Treated",Day 10,1
same,"Degree of ripening 2, number of tomatoes, Treated",Day 10,3
same,"Degree of ripening 3, number of tomatoes, Treated",Day 10,2
same,"Degree of ripening 4, number of tomatoes, Treated",Day 10,1
same,"Degree of ripening 5, number of tomatoes, Treated",Day 10,2
same,full ripening of tomatoes of the treatment group,even after 10 days,most of them did not exhibit full ripening
same,time after which tomatoes of the treatment group began the ripening process,"treatment group, control group began to ripen after 1 day",about 3 days
